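Five concentrations, 48 hours, 96-well plates. GI50 = concentration required for 50% inhibition of growth.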 Active and inactive are the calls of the source. No stated cut-off is given here; in the data, active = GI50 up to about 1.1 µM and inactive = higher.
What was measured:
Assay in all cases: NCI tumour cell line growth inhibition, 48 h
HCT-116 = tested on: HCT-116
TK-10 = tested on: TK-10
NCI-H226 = tested on: NCI-H226
M14 = tested on: M14
CCRF-CEM = tested on: CCRF-CEM
HCT-15 = tested on: HCT-15
A498 = tested on: A498
HT-29 = tested on: HT-29
RXF 393 = tested on: RXF 393
NCI/ADR-RES = tested on: NCI/ADR-RES
NCI-H23 = tested on: NCI-H23
SN12C = tested on: SN12C
EKVX = tested on: EKVX
COLO 205 = tested on: COLO 205
HCC 2998 = tested on: HCC 2998
SK-OV-3 = tested on: SK-OV-3
UACC-62 = tested on: UACC-62
U-251 = tested on: U-251
LOX IMVI = tested on: LOX IMVI
HOP-62 = tested on: HOP-62

SMILES | GI50 (HCT-116) | GI50 (TK-10) | GI50 (NCI-H226) | GI50 (M14) | GI50 (CCRF-CEM) | GI50 (HCT-15) [µM] | GI50 (A498) | GI50 (HT-29) | GI50 (RXF 393) | GI50 (NCI/ADR-RES) | GI50 (NCI-H23) | GI50 (SN12C) | GI50 (EKVX) | GI50 (COLO 205) | GI50 (HCC 2998) | GI50 (SK-OV-3) | GI50 (UACC-62) | GI50 (U-251) | GI50 (LOX IMVI) | GI50 (HOP-62)
COC(=O)c1ccc(CCC2=CC(=O)C(Br)=CC2=O)cc1 | 16 µM (inactive) | 17.3 µM (inactive) | 14.7 µM (inactive) | 14.7 µM (inactive) | 0.615 µM (active) | 14.5 | 20.2 µM (inactive) | 16.7 µM (inactive) | 18.3 µM (inactive) | 18.7 µM (inactive) | 15.1 µM (inactive) | 17.5 µM (inactive) | 19 µM (inactive) | 6.78 µM (inactive) | 15.7 µM (inactive) | 17.8 µM (inactive) | 17.8 µM (inactive) | 16.7 µM (inactive) | 17.5 µM (inactive) | 17.8 µM (inactive)
COc1cc(/C=C2/Oc3c(OC)cccc3C2=O)ccc1O | 76.9 µM (inactive) | > 100 µM (inactive) | 76 µM (inactive) | 30.8 µM (inactive) | 60.1 µM (inactive) | 24.3 | 94 µM (inactive) | 52.4 µM (inactive) | 90.2 µM (inactive) | > 10 µM (inactive) | > 100 µM (inactive) | > 100 µM (inactive) | 46.9 µM (inactive) | 45.8 µM (inactive) | 48.4 µM (inactive) | 92 µM (inactive) | > 100 µM (inactive) | > 100 µM (inactive) | 84.5 µM (inactive) | 83.8 µM (inactive)
COc1ccc2nc3cc(Cl)ccc3c(NCCCNCCCNc3c4ccc(Cl)cc4nc4ccc(OC)cc34)c2c1 | < 0.01 µM (active) | 0.0741 µM (active) | < 0.01 µM (active) | 0.0266 µM (active) | < 0.01 µM (active) | 0.0174 | 0.0541 µM (active) | < 0.01 µM (active) | 0.224 µM (active) | 0.581 µM (active) | 0.0181 µM (active) | < 0.01 µM (active) | 0.137 µM (active) | < 0.011 µM (active) | 0.0178 µM (active) | 0.0352 µM (active) | 0.0196 µM (active) | 0.0137 µM (active) | < 0.01 µM (active) | < 0.01 µM (active)
OC1[C@@H]2[C@@H](O)CCCN2C[C@@H](O)[C@H]1O (stereo not given in full) | > 100 µM (inactive) | > 100 µM (inactive) | > 100 µM (inactive) | > 100 µM (inactive) | > 100 µM (inactive) | > 100 | > 100 µM (inactive) | > 100 µM (inactive) | > 100 µM (inactive) | > 100 µM (inactive) | > 100 µM (inactive) | > 100 µM (inactive) | > 100 µM (inactive) | > 100 µM (inactive) | > 100 µM (inactive) | > 100 µM (inactive) | > 100 µM (inactive) | > 100 µM (inactive) | > 100 µM (inactive) | > 100 µM (inactive)
O=C(c1ccc(Cl)c(Cl)c1)N(C(=O)N1CCN(c2ccccc2)CC1)S(=O)(=O)c1ccccc1 | 29.8 µM (inactive) | > 100 µM (inactive) | 24.2 µM (inactive) | 37.2 µM (inactive) | 19 µM (inactive) | 24.5 | > 100 µM (inactive) | 46.7 µM (inactive) | > 100 µM (inactive) | 34 µM (inactive) | 37.5 µM (inactive) | 36.1 µM (inactive) | > 100 µM (inactive) | > 100 µM (inactive) | > 100 µM (inactive) | 27 µM (inactive) | 32.8 µM (inactive) | 25.5 µM (inactive) | 19.9 µM (inactive) | 31.6 µM (inactive)
O=C(CCc1cc(O)cc(O)c1)NCCCNC(=O)CCc1cc(O)cc(O)c1 | > 100 µM (inactive) | > 100 µM (inactive) | > 100 µM (inactive) | > 100 µM (inactive) | > 100 µM (inactive) | > 100 | > 100 µM (inactive) | > 100 µM (inactive) | > 100 µM (inactive) | > 100 µM (inactive) | > 100 µM (inactive) | > 100 µM (inactive) | > 100 µM (inactive) | > 100 µM (inactive) | > 100 µM (inactive) | > 100 µM (inactive) | > 100 µM (inactive) | > 100 µM (inactive) | > 100 µM (inactive) | > 100 µM (inactive)

Reference: ChEMBL document CHEMBL1201862, “PubChem BioAssay data set” (2004)
